Test results reported in the supplement of paper PMC5908809.

Tests used:
[1] = system: normal NK cells expanded with K562-aAPC; assay: drug sensitivity score (DSS) (DSS units); higher = more sensitive; extreme values may be limits of the assay; conditions: 72 h; IL-2 2.5 ng/mL
Experimental: (§1)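 Drug sensitivity and resistance testing on K562-aAPC-expanded normal NK cells: 5 concentrations (10-fold steps over a 10,000-fold range), 72 h at 37 °C, viability by CellTiter-Glo normalised to DMSO and benzethonium chloride controls; DSS from the fitted curve.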

[2] = system: normal primary NK cells, pool 1 (3 donors), resting (IL-2 0 ng/mL); assay: percent inhibition of viability; higher = more inhibition; conditions: 72 h
[3] = system: normal primary NK cells, pool 1 (3 donors) (IL-2 2.5 ng/mL); assay: as above; conditions: 72 h
KAI3 (IL-2 2.5 ng/mL) [4] = assay: as above; conditions: 72 h
YT (IL-2 2.5 ng/mL) [5] = assay: as above; conditions: 72 h
NKL (IL-2 2.5 ng/mL) [6] = assay: as above; conditions: 72 h
NK-92 (IL-2 2.5 ng/mL) [7] = assay: as above; conditions: 72 h
DERL-7 (IL-2 2.5 ng/mL) [8] = assay: as above; conditions: 72 h
[9] = system: normal primary NK cells, pool 2 (3 donors) (IL-2 2.5 ng/mL); assay: as above; conditions: 72 h
[10] = system: normal primary NK cells, pool 3 (3 donors) (IL-2 2.5 ng/mL); assay: as above; conditions: 72 h
NK-YS (IL-2 2.5 ng/mL) [11] = assay: as above; conditions: 72 h
SNK-6 (IL-2 2.5 ng/mL) [12] = assay: as above; conditions: 72 h
KHYG-1 (IL-2 2.5 ng/mL) [13] = assay: as above; conditions: 72 h
IMC-1 (IL-2 20 ng/mL) [14] = assay: as above; conditions: 72 h
[15] = system: normal NK cells expanded with K562-aAPC; assay: as above; conditions: 72 h, IL-2 2.5 ng/mL
Experimental: as §1

[16] = system: normal primary NK cells, pool 1 (3 donors), resting (IL-2 0 ng/mL); assay: drug sensitivity score (DSS) (DSS units); higher = more sensitive; extreme values may be limits of the assay; conditions: 72 h
[17] = system: normal primary NK cells, pool 1 (3 donors) (IL-2 2.5 ng/mL); assay: as above; conditions: 72 h
KAI3 (IL-2 2.5 ng/mL) [18] = assay: as above; conditions: 72 h
YT (IL-2 2.5 ng/mL) [19] = assay: as above; conditions: 72 h
NKL (IL-2 2.5 ng/mL) [20] = assay: as above; conditions: 72 h
NK-92 (IL-2 2.5 ng/mL) [21] = assay: as above; conditions: 72 h
DERL-7 (IL-2 2.5 ng/mL) [22] = assay: as above; conditions: 72 h
[23] = system: normal primary NK cells, pool 2 (3 donors) (IL-2 2.5 ng/mL); assay: as above; conditions: 72 h
[24] = system: normal primary NK cells, pool 3 (3 donors) (IL-2 2.5 ng/mL); assay: as above; conditions: 72 h
NK-YS (IL-2 2.5 ng/mL) [25] = assay: as above; conditions: 72 h
SNK-6 (IL-2 2.5 ng/mL) [26] = assay: as above; conditions: 72 h
KHYG-1 (IL-2 2.5 ng/mL) [27] = assay: as above; conditions: 72 h
IMC-1 (IL-2 20 ng/mL) [28] = assay: as above; conditions: 72 h

CN(C)c1nc(N(C)C)nc(N(C)C)n1 [Altretamine] (max concentration tested 10000 nM)
Conditions | drug sensitivity score
DERL-7 (IL-2 2.5 ng/mL) [22] | 0
IMC-1 (IL-2 20 ng/mL) [28] | 0
KAI3 (IL-2 2.5 ng/mL) [18] | 4.61
KHYG-1 (IL-2 2.5 ng/mL) [27] | 0
NK-92 (IL-2 2.5 ng/mL) [21] | 0
NK-YS (IL-2 2.5 ng/mL) [25] | 0.51
NKL (IL-2 2.5 ng/mL) [20] | 0
SNK-6 (IL-2 2.5 ng/mL) [26] | 0
YT (IL-2 2.5 ng/mL) [19] | 0
[1] | 0
[16] | 2.84
[17] | 0
[23] | 0
[24] | 0

percent inhibition of viability [%]
Conditions | 1 nM | 10 nM | 100 nM | 1000 nM | 10000 nM
DERL-7 (IL-2 2.5 ng/mL) [8] | -4.53 | -2.77 | 0.97 | 2.22 | 0.81
IMC-1 (IL-2 20 ng/mL) [14] | -2.71 | 0.47 | -4.67 | -2.63 | -6.93
KAI3 (IL-2 2.5 ng/mL) [4] | 3.52 | 10.7 | 11.4 | 24.1 | 24.6
KHYG-1 (IL-2 2.5 ng/mL) [13] | -7.38 | -7.34 | -6.09 | -2.99 | -6.61
NK-92 (IL-2 2.5 ng/mL) [7] | -14.2 | -12.6 | -6.86 | -1.41 | -0.2
NK-YS (IL-2 2.5 ng/mL) [11] | 1.59 | -1.58 | 1.2 | 11.7 | 9.31
NKL (IL-2 2.5 ng/mL) [6] | -10 | -9.91 | -10.4 | 1.45 | 1.87
SNK-6 (IL-2 2.5 ng/mL) [12] | -4.42 | -8.89 | -0.39 | 6.56 | -2.57
YT (IL-2 2.5 ng/mL) [5] | -3.72 | -5.67 | -6.12 | -0.77 | -8.31
[2] | -0.78 | -0.59 | 9.13 | 16.1 | 26
[3] | -5.08 | -6.48 | -0.04 | -1.59 | 3.54
[9] | -3.77 | -3.94 | -0.13 | 0 | 1.61
[10] | -9.05 | -7.82 | -1.85 | -3.99 | 3.69
[15] | -2.99 | -3.76 | 0.47 | -2.02 | -2.72

CN1CC[C@H](c2c(O)cc(O)c3c(=O)cc(-c4ccccc4Cl)oc23)[C@H](O)C1 [Alvocidib] (max concentration tested 10000 nM)
Conditions | drug sensitivity score
DERL-7 (IL-2 2.5 ng/mL) [22] | 21.2
IMC-1 (IL-2 20 ng/mL) [28] | 16.6
KAI3 (IL-2 2.5 ng/mL) [18] | 26.8
KHYG-1 (IL-2 2.5 ng/mL) [27] | 22.6
NK-92 (IL-2 2.5 ng/mL) [21] | 23.4
NK-YS (IL-2 2.5 ng/mL) [25] | 22.1
NKL (IL-2 2.5 ng/mL) [20] | 23
SNK-6 (IL-2 2.5 ng/mL) [26] | 18.3
YT (IL-2 2.5 ng/mL) [19] | 22.6
[1] | 18.4
[16] | 15.8
[17] | 20.4
[23] | 21.1
[24] | 21.3

percent inhibition of viability [%]
Conditions | 1 nM | 10 nM | 100 nM | 1000 nM | 10000 nM
DERL-7 (IL-2 2.5 ng/mL) [8] | -0.06 | -8.43 | 20 | 99.6 | 101
IMC-1 (IL-2 20 ng/mL) [14] | -6.84 | -2.57 | -23.3 | 98.5 | 100
KAI3 (IL-2 2.5 ng/mL) [4] | -3.44 | 8.97 | 69.4 | 99.3 | 104
KHYG-1 (IL-2 2.5 ng/mL) [13] | 3.43 | -0.43 | 31.6 | 103 | 106
NK-92 (IL-2 2.5 ng/mL) [7] | 1.2 | -10.9 | 40.2 | 99.5 | 104
NK-YS (IL-2 2.5 ng/mL) [11] | -0.27 | 3.87 | 33.1 | 98.8 | 103
NKL (IL-2 2.5 ng/mL) [6] | -9.8 | 1.18 | 36 | 101 | 109
SNK-6 (IL-2 2.5 ng/mL) [12] | 16.1 | 27.2 | 40 | 54.8 | 50.7
YT (IL-2 2.5 ng/mL) [5] | 1.4 | 6.09 | 33.3 | 101 | 104
[2] | 6.48 | -25.6 | -4.81 | 88.6 | 91.6
[3] | -0.02 | -24.2 | 17.8 | 96.8 | 97.3
[9] | -15.2 | -10.6 | 25.6 | 93.8 | 95.7
[10] | -16.4 | -9.75 | 22.2 | 97.3 | 98.7
[15] | -1.75 | -1.8 | 2.89 | 100 | 101
